# Columns and labels:
# [1] = system: human scalp keratinocytes; assay: Western blot / immunostaining of ALDH1A3, KRT15, KRT19 in human keratinocytes; format: cell-based; conditions: human keratinocytes
# Procedure: (§1) BMS493 treatment. BMS493 pan-RARs antagonist (1 μM) was pre-treated into keratinocytes for an hour and cells were incubated with RA (0.1 μM and 0.5 μM for human and mouse keratinocytes, respectively) or Poly (I:C) (0.1 μg per ml for both human and mouse keratinocytes) for 48 hrs. At the end of the experiment, cells were harvested for RNA and protein extraction to do further analysis including qRT-PCR and western blot.
# Western blot analysis. Human and mouse keratinocytes were disrupted in M-PER lysis buffer (Thermo Fisher Scientific, #78501) containing protease inhibitors (Thermo Fisher Scientific, #87786) using ultrasonic homogenizer (20% power with 5 times every 2 seconds) to extract proteins. Then, protein concentrations were determined by BCA method (Thermo Fisher Scientific, #23225). Western blot procedures were followed by the protocol of NuPAGE system (Thermo Fisher Scientific). Briefly, 20 μg of protein samples were loaded for electrophoresis and transferred to polyvinylidene di-fluoride (PVDF) membrane (Bio-Rad, Hercules, CA). After blocking for at least an hour in 5% non-fat dry milk, the membrane was incubated with primary antibodies with appropriate dilutions (Table 2) at 4° C. overnight and followed by incubation with secondary antibodies for 1 hour at room temperature. Protein amounts were normalized to rabbit polyclonal anti-human β-actin antibody (1:1,000 dilution) (Cell Signaling Technology). Finally, proteins were visualized using SuperSignal West Pico PLUS chemiluminescent substrate kit (Thermo Fisher Scientific, #34577) and saved as image files using ChemiDoc XRS^+ (Bio-Rad). The signal intensity of protein was quantified using Image Lab software (Bio-Rad). Original images of representative blots were provided in the Source data file.
# Immunofluorescence. For tissues, frozen-sections of mouse skin samples were stained with primary antibodies with appropriate dilution at 4° C. overnight, followed by incubation with goat anti-rabbit IgG labeled with Alexa Flour® 488 (Life Technologies) and 594 (Life Technologies) for 1 hour at room temperature. For cells, keratinocytes (3×10^5 cells) plated on cover-slip were fixed with 4% Paraformaldehyde (PFA) for 10 min, permeabilized in PBS including 0.5% Triton X-100 for 15 min at room temperature. After washing with PBS 3 times, cells were stained with primary antibodies overnight at 4° C., followed by incubation with goat anti-rabbit or mouse IgG labeled with Alexa Flour® 488 for 1 hour at room temperature. Cell nuclei were visualized by mounting medium including DAPI (Vector Laboratories, Burlingame, CA, H-1200). Fluorescence images were observed by fluorescence microscopy (Leica microsystems), taken pictures with ×100 (low magnification) and ×200 (high magnification), and saved as image files.
# [2] = system: keratinocytes of Tlr3−/− mice; assay: Western blot of stem cell markers in keratinocytes of Tlr3-/- mice; format: cell-based, mouse; conditions: keratinocytes of Tlr3−/− mice, BMS493 1 μM pre-treated
# Procedure: Adult keratinocytes isolation and cultures. For human keratinocytes, 3-mm skin biopsies were taken from areas of the occipital scalp through above IRB protocols using enzyme digestion method as described in the literature^30,31. For mouse keratinocytes, tails of adult mice were used and followed by the same protocol of human keratinocytes. Briefly, the skin fragments were incubated in 0.4% dispase II solution overnight at 4° C., allowing separation of epidermis from dermis. Then epidermis was incubated with 0.25% trypsin-EDTA (Lonza, Walkersville, MD) to isolate keratinocytes for 5 min at 37° C. Adult keratinocytes were maintained in KGM including defined growth factors (KGM-GOLD Bullet kit, #192060) (Lonza) and supplemented with 10 μM of ROCK inhibitor (Y-27632) (Cayman Chemical, #10005583) until use^32. For all in vitro experiments, primary keratinocytes were passaged at least once to eliminate contaminating other cells isolated from epidermis and used at passage 2-4 for human and passage 1-2 for mouse keratinocytes.
# as §1
# Western blot analysis. Human and mouse keratinocytes were disrupted in M-PER lysis buffer (Thermo Fisher Scientific, #78501) containing protease inhibitors (Thermo Fisher Scientific, #87786) using ultrasonic homogenizer (20% power with 5 times every 2 seconds) to extract proteins. Then, protein concentrations were determined by BCA method (Thermo Fisher Scientific, #23225). Western blot procedures were followed by the protocol of NuPAGE system (Thermo Fisher Scientific). […] The signal intensity of protein was quantified using Image Lab software (Bio-Rad). […]
# [3] = system: Wound Induced Hair Neogenesis (WIHN); assay: Wound Induced Hair Neogenesis (WIHN), regenerated hair follicles counted by CSLM; format: in vivo, mouse; conditions: WT mice, topical 0.1 μg per mouse on WD1, with or without Poly (I:C)
# Procedure: (§2) Wound Induced Hair Neogenesis (WIHN). All experiments were followed with the present inventors' WIHN protocol^1,9. Briefly, hair was shaved and a 1.2 cm^2 full-thickness skin on the backs of 21-day old (telogen) male and female mice was removed by sterile scissors. A single treatment of RA (30 μl) (0.1 μg per mouse) (Millipore Sigma, R2625) and BMS493 (30 μl) (0.1 μg per mouse) (Cayman Chemical, #17418) was applied topically onto open wound on WD1 of Tlr3^−/− and WT mice, respectively. Poly (I:C) (50 μl) (5 μg per mouse) (Invivogen, tlrl-pic) was injected under the healed scab on WD3 of WT mice as described before^9,34. On WD20-24, numbers of regenerated hair follicles were visualized and quantified in the re-epithelialized skin by non-invasive confocal scanning laser microscopy (CSLM) (Caliber I.D., VIVASCOPE 1500) as published^1,9. As a vehicle (Control), ethanol (EtOH), dimethylsulfoxide (DMSO), or PBS was treated for RA, BMS493, and Poly (I:C), respectively.
# wound beds = assay: Immunostaining of healing wounds; format: in vivo, mouse; conditions: WT mice
# Procedure: as §2
# Immunofluorescence. […] Fluorescence images were observed by fluorescence microscopy (Leica microsystems), taken pictures with ×100 (low magnification) and ×200 (high magnification), and saved as image files.
# [4] = system: human scalp keratinocytes; assay: Retinoid levels (RA by LC-MS/MS, ROL and RE by HPLC-UV) in keratinocytes; format: cell-based; conditions: human scalp keratinocytes, rhIL6 0, 10, 50, 100 ng per ml, 2 days
# From the text: Small interference RNA (siRNA) transfection. Human ALDH1A2 (Santa Cruz Biotechnology, sc41443), ALDH1A3 (Santa Cruz Biotechnology, sc43611), TLR3 (Dharmacon, M-007745-00), TRIF (Santa Cruz Biotechnology, sc106845), IRF3 (Santa Cruz Biotechnology, sc35710), NF-κB (Santa Cruz Biotechnology, sc29410) and non-targeting control (scramble) siRNAs (Santa Cruz Biotechnology, sc37007 & Dharmacon, D-001210) were commercially provided. Human scalp keratinocytes (3×10^5 cells per well) in 12-well plates were transfected with 20 nM of siRNAs using Lipofectamine® RNAiMAX (Thermo Fisher Scientific, #13778150) following the manufacturer's directions. Poly (I:C) (0.1 μg per ml) was applied to transfected cells and incubated for 48 hrs. At the end of transfection period, cells were harvested to isolate protein to perform qRT-PCR, western blot, and RA mass spectrometry.
# IL6 treatment. Recombinant human interleukin 6 (rhIL6) (R&D system; 206-IL-010) was treated into human scalp keratinocytes with dose-dependent manners (0, 10, 50, and 100 ng per ml) for 2 days. Cells were harvested and lysates were used for RA measurement.
# Determination of Retinoid Levels. For in vitro samples, human scalp keratinocytes were incubated with 0.5 μg per ml of Poly (I:C) for 48 hrs or siRNAs-transfected cells were incubated with 0.1 μg per ml of Poly (I:C) for 48 hrs. For in vivo samples, skin was analyzed from wild-type and Tlr3^−/− unwounded and wounded skin where wound regions (center and edge area) were cut by scalpel. Human skin was analyzed for retinoids with and without CO2 laser treatment as described. All samples were frozen at collection and stored at −80° C. until extraction. For in vitro experiments, media and cell pellets were analyzed separately. For in vivo experiments, tissues were homogenized in saline. Extraction of retinoids was performed under yellow lights using a two-step liquid-liquid extraction that has been described in detail previously using 4,4-dimethyl-RA as an internal standard for RA and retinyl acetate as an internal standard for retinol and total retinyl ester^43-46. For the extraction of retinoids, 1 to 3 ml of 0.025 M KOH in ethanol was added to tissue homogenates (in vivo) or cell culture (in vitro) samples. Then 10 ml hexane (for in vivo tissue sample) or 5 ml hexane (for in vitro cell culture sample) was added to the aqueous ethanol phase. The samples were vortexed and centrifuged for 1 to 3 min at 1000 rpm in a Dynac centrifuge (Becton Dickinson) to facilitate phase separation and pellet precipitated protein. The hexane (top) phase containing nonpolar retinoids (ROL and RE) was removed. 4 M HCl (60-180 μl) was added to the remaining aqueous ethanol phase, samples were vortexed, and then polar retinoids (RA) were removed by extraction with a second 5-10 ml aliquot of hexane as described above. […]
# Levels of RA were determined by liquid chromatography-multistage tandem mass spectrometry (LC-MRM^3) which is an LC-MS/MS method utilizing two distinct fragmentation events for enhanced selectivity^43. RA was measured using a Shimadzu Prominence UFLC XR liquid chromatography system (Shimadzu, Columbia, MD) coupled to an AB Sciex 5500 or 6500+ QTRAP hybrid triple quadrupole mass spectrometer (AB Sciex, Framingham, MA) using atmospheric pressure chemical ionization (APCI) operated in positive ion mode as previously described^43. […]
compound,measurement,setting,value
"CCN(CC)c1ccc(C=O)cc1 [DEAB, N,N-diethylaminobenzaldehyde]","Poly (I:C) induction of ALDH1A3, KRT15 and KRT19 protein",[1]; broad ALDH chemical inhibition,disrupted
CC1(C)CC=C(C#Cc2ccccc2)c2cc(/C=C/c3ccc(C(=O)O)cc3)ccc21 [BMS493],RA-induced Krt15 and Krt19 expression,[2],substantially inhibits expression
same,RA-induced active β-catenin (ABC) expression,[2],inhibits induction
same,RA and Poly (I:C)-induced KRT15 and KRT19 expression,[1]; BMS493 1 μM pre-treated,substantially inhibited
same,WIHN,[3],almost completely ablated
same,Wnt7b and Krt15 protein expression in wound beds prior to regeneration,wound beds,decreased
IL-6: Recombinant human interleukin 6 (R&D system; 206-IL-010),RA accumulation,[4],sufficient to substantially stimulate RA accumulation

# Source: patent publication US11969402B2, “Compositions and methods for skin rejuvenation” (THE JOHNS HOPKINS UNIVERSITY, priority 2019, dated 2024)
